# Laboratory results: US10829796B2, “Bacteria identification and antimicrobial susceptibility test” (priority 2015, dated 2020)
# Test system: bacteria in clinical bovine mastitis milk samples
# Assay: Combined bacteria identification and antimicrobial susceptibility test (colour of wells, MIC) on clinical bovine mastitis milk samples
# Assay type: cell-based
# Protocol: Clinical bovine mastitis milk samples were collected by a vet clinic in South Island, New Zealand. Samples were stored in the freezer for several months and shipped frozen to the testing facility. In this Example, the term “clinical” means that dairy cows had clinical symptoms of an udder infection e.g. cow behaved unusual, milk clots, swollen udder among other typical symptoms. Testing was executed in microwell plate comprising of 24 wells (3×8 wells).
# In addition, 20 ul of clinical mastitis sample was added to each well with a laboratory pipette.
# (§1) Abbreviations • 1. 80 ul GC+10 ul Tell: 80 ul Giolitti Cantoni base broth+10 ul Tellurite solution (1%); • 2. 80 ul TSB/Esc/Fer Cit: 80 ul Tryptic soy broth containing 0.25% Esculin and 0.125% Ammonium Ferric Citrate; • 3. 80 ul TSB/Esc/Fer Cit+10 ul Genta: 80 ul Tryptic soy broth containing 0.25% Esculin and 0.125% Ammonium Ferric Citrate+10 ul of Gentamycin solution 10 mg/ml; • 4. 80 ul McC/PR25: 80 ul MacConkey broth (single strength) containing 0.0125% phenol red; and • 5. 80 ul TSB/PR25: 80 ul Tryptic soy broth containing 0.0125% phenol red. Bacteria Identification
# Columns A to C and rows 1 and 2 were used for bacteria identification. A1: coagulase positive Staph; A2: Staphylococci; B1: Strep group D; B2: Strep group D; C1: general enrichment media (gram+ and gram-bacteria); C2: coliform bacteria.
# Column A3 to A8: serial dilution of benzyl penicillin as potassium. Column B3 to B8: serial dilution of ceftiofur as hydrochloride. Column C3 to C8: serial dilution of cloxacillin as sodium. Antibiotic concentrations are listed as free form ranging between 4 ug/ml to 0.05 ug/ml.
# Minimum inhibitory substance concentration (MIC) is here defined as the concentration if a colour change occurs between two wells (one well remains red with drug concentration 1, the other one yellow with drug concentration 2, whereas drug concentration 1 is larger than drug concentration 2) then the MIC is the value of drug concentration 1.
# Table 21 indicates the microwell plate configuration #1; Drugs: Benzylpenicillin as potassium; Cloxacillin as sodium; Ceftiofur as hydrochloride; Drug concentration in each well (A3 to C8) is based on 80 μl composition+10 μl drug solution+20 μl clinical mastitis milk sample and equivalent to listed drug concentration in μg/ml; 20 ul of clinical bovine mastitis milk sample was added to each well (A1 to C8).
# In addition, each well received one drop of clinical sample from a transfer pipette which was on average about 35 mg. This was determined through weighing the well plate prior and after the addition of clinical mastitis samples. This weight was then divided by 24.
# as §1, with “•” for “Abbreviations •”, “red.” for “red. Bacteria Identification”
# Columns A to C and rows 1 and 2 were used for bacteria identification. A1: coagulase positive Staph; A2: Staphylococci; B1: Strep Group D; B2: -; C1: general enrichment media (gram+ and gram-); C2: coliform bacteria.
# Column A3 to A8: serial dilution of benzyl penicillin as potassium. Drug concentrations given as free form ranging between 4 ug/ml to 0.05 ug/ml. Column B3 to B8: serial dilution of ceftiofur as hydrochloride. Drug concentrations given as free form ranging between 4 ug/ml to 0.05 ug/ml. Column C3 to C8: serial dilution of cloxacillin as sodium. Drug concentrations given as free form ranging between 4 ug/ml to 0.05 ug/ml.
compound,measurement,setting,value
Cc1onc(-c2ccccc2Cl)c1C(=O)N[C@@H]1C(=O)N2[C@@H]1SC(C)(C)[C@@H]2C(=O)O [cloxacillin],Colour of media in each well,"ID 1, T = 22 h, 37° C., plate configuration #1, drug 0.05 μg/ml",yellow
same,Colour of media in each well,"ID 1, T = 22 h, 37° C., plate configuration #1, drug 0.1 μg/ml",yellow
same,Colour of media in each well,"ID 1, T = 22 h, 37° C., plate configuration #1, drug 0.5 μg/ml",red
same,Colour of media in each well,"ID 1, T = 22 h, 37° C., plate configuration #1, drug 1 μg/ml",red
same,Colour of media in each well,"ID 1, T = 22 h, 37° C., plate configuration #1, drug 2 μg/ml",red
same,Colour of media in each well,"ID 1, T = 22 h, 37° C., plate configuration #1, drug 4 μg/ml",red
same,Colour of media in each well,"ID 2, T = 48 h, 37° C., plate configuration #1, drug 0.05 μg/ml",yellow
same,Colour of media in each well,"ID 2, T = 48 h, 37° C., plate configuration #1, drug 0.1 μg/ml",yellow
same,Colour of media in each well,"ID 2, T = 48 h, 37° C., plate configuration #1, drug 0.5 μg/ml",red
same,Colour of media in each well,"ID 2, T = 48 h, 37° C., plate configuration #1, drug 1 μg/ml",red
same,Colour of media in each well,"ID 2, T = 48 h, 37° C., plate configuration #1, drug 2 μg/ml",red
same,Colour of media in each well,"ID 2, T = 48 h, 37° C., plate configuration #1, drug 4 μg/ml",red
same,Colour of media in each well,"ID 3, T = 22 h, 37° C., plate configuration #1, drug 0.05 μg/ml",yellow
same,Colour of media in each well,"ID 3, T = 22 h, 37° C., plate configuration #1, drug 0.1 μg/ml",yellow
same,Colour of media in each well,"ID 3, T = 22 h, 37° C., plate configuration #1, drug 0.5 μg/ml",red
same,Colour of media in each well,"ID 3, T = 22 h, 37° C., plate configuration #1, drug 1 μg/ml",red
same,Colour of media in each well,"ID 3, T = 22 h, 37° C., plate configuration #1, drug 2 μg/ml",yellow
same,Colour of media in each well,"ID 3, T = 22 h, 37° C., plate configuration #1, drug 4 μg/ml",yellow
same,Colour of media in each well,"ID 3, T = 23 h, 37° C., Table 34, drug 0.05 μg/ml",yellow
same,Colour of media in each well,"ID 3, T = 23 h, 37° C., Table 34, drug 0.1 μg/ml",yellow
same,Colour of media in each well,"ID 3, T = 23 h, 37° C., Table 34, drug 0.5 μg/ml",red
same,Colour of media in each well,"ID 3, T = 23 h, 37° C., Table 34, drug 1 μg/ml",red
same,Colour of media in each well,"ID 3, T = 23 h, 37° C., Table 34, drug 2 μg/ml",yellow
same,Colour of media in each well,"ID 3, T = 23 h, 37° C., Table 34, drug 4 μg/ml",yellow
same,Colour of media in each well,"ID 3, T~7 h, 37° C., Table 34, drug 0.05 μg/ml",red
same,Colour of media in each well,"ID 3, T~7 h, 37° C., Table 34, drug 0.1 μg/ml",red
same,Colour of media in each well,"ID 3, T~7 h, 37° C., Table 34, drug 0.5 μg/ml",red
same,Colour of media in each well,"ID 3, T~7 h, 37° C., Table 34, drug 1 μg/ml",red
same,Colour of media in each well,"ID 3, T~7 h, 37° C., Table 34, drug 2 μg/ml",red
same,Colour of media in each well,"ID 3, T~7 h, 37° C., Table 34, drug 4 μg/ml",red
same,Colour of media in each well,"ID 3, T~11 h, 37° C., Table 34, drug 0.05 μg/ml",red
same,Colour of media in each well,"ID 3, T~11 h, 37° C., Table 34, drug 0.1 μg/ml",red
same,Colour of media in each well,"ID 3, T~11 h, 37° C., Table 34, drug 0.5 μg/ml",red
same,Colour of media in each well,"ID 3, T~11 h, 37° C., Table 34, drug 1 μg/ml",red
same,Colour of media in each well,"ID 3, T~11 h, 37° C., Table 34, drug 2 μg/ml",red
same,Colour of media in each well,"ID 3, T~11 h, 37° C., Table 34, drug 4 μg/ml",red
same,Colour of media in each well,"ID 4, T = 22 h, 37° C., plate configuration #1, drug 0.05 μg/ml",yellow
same,Colour of media in each well,"ID 4, T = 22 h, 37° C., plate configuration #1, drug 0.1 μg/ml",yellow
same,Colour of media in each well,"ID 4, T = 22 h, 37° C., plate configuration #1, drug 0.5 μg/ml",red
same,Colour of media in each well,"ID 4, T = 22 h, 37° C., plate configuration #1, drug 1 μg/ml",red
same,Colour of media in each well,"ID 4, T = 22 h, 37° C., plate configuration #1, drug 2 μg/ml",red
same,Colour of media in each well,"ID 4, T = 22 h, 37° C., plate configuration #1, drug 4 μg/ml",red
same,Colour of media in each well,"ID 5, T = 23 h, 37° C., plate configuration #2, drug 0.05 μg/ml",yellow
same,Colour of media in each well,"ID 5, T = 23 h, 37° C., plate configuration #2, drug 0.1 μg/ml",yellow
same,Colour of media in each well,"ID 5, T = 23 h, 37° C., plate configuration #2, drug 0.5 μg/ml",red
same,Colour of media in each well,"ID 5, T = 23 h, 37° C., plate configuration #2, drug 1 μg/ml",red
same,Colour of media in each well,"ID 5, T = 23 h, 37° C., plate configuration #2, drug 2 μg/ml",red
same,Colour of media in each well,"ID 5, T = 23 h, 37° C., plate configuration #2, drug 4 μg/ml",red
same,Colour of media in each well,"ID 5 to 8, T = 0 h (prior incubation, reference), plate configuration #2, drug 0.05 μg/ml",red
same,Colour of media in each well,"ID 5 to 8, T = 0 h (prior incubation, reference), plate configuration #2, drug 0.1 μg/ml",red
same,Colour of media in each well,"ID 5 to 8, T = 0 h (prior incubation, reference), plate configuration #2, drug 0.5 μg/ml",red
